Reference: patent publication US11890288B2, “Sulfonamide or sulfinamide compound having effect of inducing BRD4 protein degradation and pharmaceutical use thereof” (MITSUBISHI TANABE PHARMA CORPORATION, priority 2020, dated 2024)

Key:
[1] = tested on: human prostate cancer LNCaP cells; experiment: Cytotoxic action on LNCaP cells (WST-8, 96 hr); type: cell-based; details: 96 hr culture
Protocol: The cytotoxic action of the compound of the present invention against human cancer cells was evaluated in vitro. In this experiment, (+)-JQ1 (Nature volume 468, pages 1067-1073 (23 Dec. 2010)) known to have an inhibitory activity on the binding of BRD4 protein and a ligand therefor was used as a positive control drug. Respective cells were suspended in 10% FBS/RPMI1640, seeded in a 96 well plate and cultured at 5% CO2, 37° C. overnight. A test compound dissolved in DMSO was diluted with 10% FBS/RPMI1640 and added and the cells were further cultured for 96 hr. After culturing, the viable cell number was measured using a cell number measurement WST-8 kit (Kishida Chemical Co., Ltd.). As a control, the measurement was performed under conditions free of the test compound. The cytotoxic activity of the compound of the present invention against human prostate cancer LNCaP cells is shown in IC50 value in Table 1. The IC50 value is a concentration of the compound showing 50% cell survival rate when the cell survival rate thereof under compound untreated condition is 100%. It was calculated from the straight line connecting the cell survival rate at two points enclosing the 50% cell survival rate and the compound concentration. In addition, the cytotoxic activity against respective cancer cells of human acute myeloid leukemia MV-4-11 cell, human chronic myeloid leukemia K562 cell, human multiple myeloma MM.1S cell, human diffuse large B-cell lymphoma SU-DHL-6 cell, human T-cell leukemia Jurkat cells, human Burkitt lymphoma Raji cell, human castration-resistant prostate cancer PC-3 cell, human AR-V7 positive castration-resistant prostate cancer 22Rv1 cell, human ovarian cancer A2780 cell, human cisplatin-resistant ovarian cancer SK-OV-03 cell, human bladder cancer 5637 cell, human breast cancer ZR-75-1 cell, human triple negative breast cancer MDA-MB-231 cell, human uterus cervix cancer HeLa cell, human uterine sarcoma MES-SA cell, human stomach cancer SNU-16 cell, human non-small cell lung cancer NCI-H2126 cell, human EGFRT790M mutation-positive non-small cell lung cancer NCI-H1975 cell, human small cell lung cancer NCI-H82 cell, human large cell lung cancer NCI-H460 cell, human colon cancer HCT116 cell, human glioma U-87 MG cell, human pancreatic cancer BxPC-3 cell, human liver cancer HLF cell, human bile duct cancer HuCCT1 cell, human renal cell cancer 786-O cell, and human fibrosarcoma HT1080 cell is shown in IC50 value in Table 2.

BRD4 protein = BRD4 protein (Homo sapiens (Human), UniProt O60885); experiment: BRD4 protein degradation inducing action in LNCaP cells (immunofluorescence, 6 hr); type: cell-based; details: anti-BRD4 fluorescence intensity
Protocol: The degradation inducing action of the compound of the present invention on BRD4 proteins in cancer cells was evaluated in vitro using human prostate cancer LNCaP cells. LNCaP cells were suspended in 10% FBS/RPMI1640, seeded in a 96 well Cell carrier plate (Perkin Elmer) and cultured at 5% CO2, 37° C. overnight. A test compound dissolved in DMSO was diluted with 10% FBS/RPMI1640 and added and the cells were further cultured for 6 hr. After culturing, the cells were immobilized with 4% para-formaldehyde/PBS and further subjected to a permeation treatment with 0.25% Triton X-100/PBS. Thereafter, the cells were blocked with 10% BSA/PBS, Anti-BRD4 (Sigma-Aldrich) solution was added and the cells were incubated at 4° C. overnight. Furthermore, Goat anti-Rabbit IgG(H+L) Cross-Adsorbed Secondary Antibody, Alexa Fluor 546 (Thermo Fisher Scientific) solution, 0.5 μg/mL Hoechst 33342 (Sigma-Aldrich), and 14 μM Acti-Stain 555 Fluorescent Phalloidin (Cytoskeleton) were added. After incubation for 1 hr, BRD4 protein amount was measured by Operetta (Perkin Elmer) as fluorescence intensity (excitation: 560 nm, emission: 572 nm). The BRD4 protein degradation inducing activity of the compound of the present invention in LNCaP cells is shown in DC50 value in Table 3. The DC50 value is a concentration of the compound showing 50% fluorescence intensity when the fluorescence intensity thereof under compound untreated condition is 100%. It was calculated from the straight line connecting the fluorescence intensity at two points enclosing the 50% fluorescence intensity and the compound concentration.

| SMILES | DC50 (BRD4 protein) | IC50 [1] |
| --- | --- | --- |
| COC(=O)C[C@@H]1N=C(c2ccc(-c3ccc(C(=O)NCc4ccc(S(=O)(=O)Nc5ccc(C)c6c(C#N)c[nH]c56)c(F)c4)cc3)cc2)c2c(sc(C)c2C)-n2c(C)nnc21 [Example 25, methyl [(6S)-4-{4′-[({4-[(3-cyano-4-methyl-1H-indol-7-yl)sulfamoyl]-3-fluorophenyl}methyl)carbamoyl][1,1′-biphenyl]-4-yl}-2,3,9-trimethyl-6H-thieno[3,2-f][1,2,4]triazolo[4,3-a][1,4]diazepin-6-yl]acetate] | 0.16 nM | 0.24 nM |
| Cc1sc2c(c1C)C(c1ccc(-c3ccc(C(=O)NCc4ccc(S(=O)(=O)Nc5ccc(C)c6c(C#N)c[nH]c56)cc4)cc3)cc1)=N[C@@H](CC#N)c1nnc(C)n1-2 [Example 73, N-({4-[(3-cyano-4-methyl-1H-indol-7-yl)sulfamoyl]phenyl}methyl)-4′-[(6S)-6-(cyanomethyl)-2,3,9-trimethyl-6H-thieno[3,2-f][1,2,4]triazolo[4,3-a][1,4]diazepin-4-yl][1,1-biphenyl]-4-carboxamide] | 0.75 nM | 1.7 nM |
| CCc1ccc(NS(=O)(=O)c2ccc(CNC(=O)c3cc(F)c(-c4ccc(C5=N[C@@H](CC(=O)OC)c6nnc(C)n6-c6sc(C)c(C)c65)cc4)cc3F)cc2)c2[nH]cc(C#N)c12 [Example Compound 119, methyl [(6S)-4-{4′-[({4-[(3-cyano-4-ethyl-1H-indol-7-yl)sulfamoyl]phenyl}methyl)carbamoyl]-2′,5′-difluoro[1,1′-biphenyl]-4-yl}-2,3,9-trimethyl-6H-thieno[3,2-f][1,2,4]triazolo[4,3-a][1,4]diazepin-6-yl]acetate] | 0.27 nM | 0.45 nM |
| COC(=O)C[C@@H]1N=C(c2ccc(-c3ccc(C(=O)NCCc4ccc(S(=O)(=O)Nc5ccc(C)c6c(C#N)c[nH]c56)cc4)c(F)c3)cc2)c2c(sc(C)c2C)-n2c(C)nnc21 [Example 40, methyl [(6S)-4-{4′-[(2-{4-[(3-cyano-4-methyl-1H-indol-7-yl)sulfamoyl]phenyl}ethyl)carbamoyl]-3′-fluoro[1,1′-biphenyl]-4-yl}-2,3,9-trimethyl-6H-thieno[3,2-f][1,2,4]triazolo[4,3-a][1,4]diazepin-6-yl]acetate] | 0.19 nM | 0.42 nM |

Compounds with a lower DC50 (BRD4 protein), results first:

| DC50 (BRD4 protein) | SMILES | IC50 [1] |
| --- | --- | --- |
| 0.069 nM | CCc1ccc(NS(=O)(=O)c2ccc(CNC(=O)c3ccc(-c4ccc(C5=N[C@@H](CC(=O)OC)c6nnc(C)n6-c6sc(C)c(C)c65)cc4)cn3)cc2)c2[nH]cc(C#N)c12 [Example 108, methyl [(6S)-4-(4-{6-[({4-[(3-cyano-4-ethyl-1H-indol-7-yl)sulfamoyl]phenyl}methyl)carbamoyl]pyridin-3-yl}phenyl)-2,3,9-trimethyl-6H-thieno[3,2-f][1,2,4]triazolo[4,3-a][1,4]diazepin-6-yl]acetate] | 0.23 nM |
| 0.028 nM | CCCOC(=O)C[C@@H]1N=C(c2ccc(-c3ccc(C(=O)NCc4ccc(S(=O)(=O)Nc5ccc(C)c6c(C#N)c[nH]c56)cc4)cc3)cc2)c2c(sc(C)c2C)-n2c(C)nnc21 [Example Compound 130, n-propyl [(6S)-4-{4′-[({4-[(3-cyano-4-methyl-1H-indol-7-yl)sulfamoyl]phenyl}methyl)carbamoyl][1,1′-biphenyl]-4-yl}-2,3,9-trimethyl-6H-thieno[3,2-f][1,2,4]triazolo[4,3-a][1,4]diazepin-6-yl]acetate] | 0.05 nM |
| 0.14 nM | CCc1ccc(NS(=O)(=O)c2ccc([C@@H](C)NC(=O)c3ccc(-c4ccc(C5=N[C@@H](CC(=O)OC)c6nnc(C)n6-c6sc(C)c(C)c65)cc4)c(F)c3F)cc2)c2[nH]cc(C#N)c12 [Example Compound 122, methyl [(6S)-4-(4′-{[(1R)-1-{4-[(3-cyano-4-ethyl-1H-indol-7-yl)sulfamoyl]phenyl}ethyl]carbamoyl}-2′,3′-difluoro[1,1′-biphenyl]-4-yl)-2,3,9-trimethyl-6H-thieno[3,2-f][1,2,4]triazolo[4,3-a][1,4]diazepin-6-yl]acetate] | 0.39 nM |
